Consider two compounds from US6660742B2, “Compositions and methods of the use thereof achiral analogues of CC-1065 and the duocarmycins” (priority 2000, dated 2003).

Data set [1] has as its system CCRF-CEM.
Procedure: (§1) The compounds of this invention were also tested against the panel of 60 human cancer cell lines at the National Cancer Institute, Bethesda, Md. […] The cytrotoxicity studies were conducted using a 48 hour exposure, and measuring the optical density of sulforhodamide B-derived color.
The subject of data set [2] is BT-549.
Procedure: (§2) The compounds of this invention were also tested against the panel of 60 human cancer cell lines at the National Cancer Institute, Bethesda, Md. (44). The cytrotoxicity studies were conducted using a 48 hour exposure, and measuring the optical density of sulforhodamide B-derived color.
Data set [3] deals with human H522 lung cancer. The conditions noted are these: hollow fiber.
The subject of data set [4] is SF-539.
Procedure: as §1
In data set [5] the test system is SR.
Procedure: as §1
In data set [6] the test system is supercoil pBR322 DNA. Nature of the data set: pBR322 strand nicking assay. Type of data set: biochemical. The text has this:
When a compound is covalently bound to a purine-N3 in the minor groove of DNA, the adduct is thermally unstable. It is readily hydrolyzed to produce a DNA strand (2). Consequently, the formation of adenine-N3 (or guanine-N3) alkylation adducts can be detected by thermal conversion of supercoil pBR322 DNA (Form I) to nicked open […] DNA (Form II) as a result of the formation of single strand breaks. These two different forms of pBR322 DNA can then be separated by agarose gel electrophoresis, and the relative amounts of each form can be determined by densitometry of methylene blue stained gels (39). The supercoil form of pBR322 DNA is more compact than the open circular form, and as a result, moves further down the gel towards the positive electrode.
Solutions of the drugs dissolved in N,N-dimethylacetamide (DMA) were made at 0.10 mM concentrations, and were always stored in the refrigerator.
Tris buffer solution at pH 7.4 at 25° C. and 0.010 M was made from Tris HCl (0.661 g), Tris base (0.097 g) diluted to a 100 mL volume with distilled water. Then EDTA-Na2—2H2O (0.186 g) and KCl (3.72 g) were added to the Tris HCl solution and diluted to 500 mL volume with distilled water. A TBE solution was prepared from Carolina Lot #4020602 Electrophoresis buffer 20 times TBE diluted to a volume of three liters with deionized water. The agarose gel was prepared from agarose low EEO (0.32 g) dissolved in TBE buffer (40 mL) and heated in a microwave oven until dissolved.
The pBR322 DNA (100 μg/100 μL) from Pharmacia Biotech was in a buffer (10 mM Tris-HCl pH 7.5, and 1 mM EDTA). The DNA was prepared from plasmid DNA isolated from E. coli HB101 by the alkaline lysate procedure and was purified by Sepharcryl S-100 chromatography followed by CsCl-ethidium bromide centrifugation.
The alkylation samples were prepared by adding DNA (10 μL), Tris-EDTA KCl buffer (18 μL), and compound (2 μL) at 100 μM concentration to Eppendorf tubes. The samples were incubated at 40° C. for 40 h. The samples were removed then centrifuged for one minute. 10% SDS (sodium dodecylsulfate) (2 μL), 50% glycerol (5 μL), and bromophenol blue (2 μL) were added to the samples. The contents of the tubes were mixed with a Vortex mixer then centrifuged to consolidate the samples. The agarose gel was covered with TBE-buffer in the chamber. The samples were loaded onto the agarose gel and run at 40 V for three hours, or when the band were about three/fourths of the way down the gel.
The gel was removed and stained with methylene blue (45 min). At this time, the stained gel was placed in a water chamber overnight. The intensities of each band i.e. Form I and II were determined using densitometry.

In data set [7] the test system is K-562.
Procedure: as §1
The subject of data set [8] is HS 578T.
Procedure: as §2
Data set [9] has as its system OVCAR-4.
Procedure: as §1
In data set [10] the test system is L1210 leukemia cells. Nature of the data set: MTT cytotoxicity on L1210 cells. Format: cell-based, murine. The conditions noted are these: 72 hr incubation. The protocol:
The P815 and L1210 cell lines were obtained from American Type Tissue Culture Collection (ATCC). The cell lines were grown in Delbecco's Modified Eagle Medium (DMEM, Atlanta Biologicals) supplemented with 10% fetal bovine serum, Hepes Buffer (2 mM, Mediatech Cellgro, 25-060-Cl), L-Glutamine (2 mM, Mediatech Cellgro), and penicillin/streptomycin (50,000 units penicillin, 50,000 […], Atlanta Biologicals). Cells were maintained at 37° C. in a 5% humidified CO2 atmosphere. Cultured cells were counted using a hemocytometer and resuspended in fresh DMEM at a concentration of 8×10^5 cells/mL. This cell suspension (100 μL) was added to 96 well flat -bottom cell culture plates. At this concentration, 80,000 cells were seeded in each well. Drug solutions (dissolved in DMSO and diluted in DMEM) were added to each well (5 μL/well) resulting in final concentrations ranging from 1×10^−4 to 1×10^−12 M. Quadruplicate wells were prepared for each drug concentration. The plates were incubated for 72 hr at 37° C. in a 5% CO2 atmosphere. MTT (3-(4,5-dimethylthiazol-2-yl)-2,5-diphenyl tetrazolium bromide) was dissolved in PBS (5 mg/ml). After the indicated cell incubation period, 10 μL of this stock MTT solution was added to each well and the plates were further incubated for 4 h at 37° C. in a 5% CO2 atmosphere. […] The contents of the well were mixed thoroughly by pipetting the cell suspension up and down and the plates were allowed to sit at room temperature for 15 min in order to allow for full development of the purple color. The plates were read on a Dynatech Plate Reader, utilizing Dynex Revelation 3.2 software, with a test wavelenth of 570 nm and a reference wavelength of 630 nm.

The subject of data set [11] is MCF-7 (human breast cancer cells). Nature of the data set: SRB cytotoxicity on MCF-7 cells. Format: cell-based.
Procedure: Cells were seeded in 96-well microtiter plates at densities of 1000 cells/well. The optimal seeding density was determined to ensure exponential growth in control wells throughout the experimental period and to obtain a linear relationship between absorbance at 492 nm and cell number when analyzed by the sulforhodamine B (SRB) assay (43). 24 hours after seeding the cells were incubated for 1 hour or continuously for 3 days with the drugs (concentration range 0.01 to 500 μM). The cells were washed once and then incubated in drug free medium for 6 days. At the end of the incubation cell growth was determined by the SRB assay, which quantifies viable cells by measuring their total cellular protein content. […] Similar studies were conducted against the growth of PC3 (human prostate cancer cells) and MCF-7 (human breast cancer cells).
The test system of data set [12] is HL-60(TB). Format: cell-based.
Data set [13] concerns T-47D. Nature of the data set: NCI screen, T-47D (Breast Cancer). Type of data set: cell-based, human.
Procedure: as §1
Data set [14] relates to A549/ATCC. Nature of the data set: cells. The settings on record: Homo sapiens, A549, 48 h.

SMILES strings stand for the structures. Values joined by “and” are separate entries in the source; they are usually repeats but may differ in a detail not shown here. Identical values can stand only once. Like-named read-outs stand apart in the source and are kept apart here. Some results are limits rather than exact numbers.

`O=C(Nc1cc(O)ccc1CCCl)c1cc2cc(NC(=O)c3cc4ccccc4o3)ccc2[nH]1` [Compound 1, 4-(2-Chloroethyl)-3-[5-(5-benzofuran-2-carboxamido)indole-2-carboxamido]phenol]: the CC50 is greater than 100 µM in data set [1]; greater than 100 µM in [2]; 9 µM in data set [4]; greater than 100 µM in data set [5]; greater than 100 µM in [7]; greater than 100 µM in [8]. In data set [3], the “IP+SC score” value is 18. For the same compound, the cell kill entry in [3] is “significant cells kill was observed”. The same compound displayed an IP score in data set [3] (intraperitoneal fibers) of 8. The compound also returned an SC score in [3] (subcutaneous fibers) of 10. Moreover, in data set [6], the “Form I DNA (%)” value worked out at 73 ± 2%. Besides, the “Form II DNA (%)” value in data set [6] is listed as 27 ± 4%. Further, the “Percent Growth” value is 108% and 128% in data set [9]; −82% in [9] (OVCAR-4, Log10 Concentration −4.0); −45% in [9] (OVCAR-4, Log10 Concentration −5.0); 115% in data set [9] (OVCAR-4, Log10 Concentration −7.0). The compound also gave a GI50 in [9] (OVCAR-4) of 2.39 µM. In [9] (OVCAR-4), this compound had a TGI of 5.06E−06 Molar. Further, the IC50 in data set [10] is 23 µM; in [11] (continuous exposure, read-out: IC50 MCF-7 Continuous exposure), 3.43 µM; in data set [11] (read-out: IC50 MCF-7 1 hour exposure, 1 hour exposure), greater than 50 µM.
Turning to `COC(=O)c1[nH]c2c(O)cc(NC(=O)c3cc4cc(OC)c(OC)c(OC)c4[nH]3)c(CCCl)c2c1C(=O)OC` [Compound 22, Dimethyl 4-(2-chloroethyl)-7-hydroxy-5-(5,6,7-trimethoxyindole-2-carboxamido)indole-2,3-dicarboxylate], the TGI in data set [12] (48 hour exposure) is recorded as greater than 5.00E−05 Molar; in [13] (T-47D, 48 hour exposure), greater than 5.00E−05 Molar. Moreover, the “Percent Growth” value in data set [12] (Log10 Concentration −4.3, 48 hour exposure) stood at 3%; in data set [12] (Log10 Concentration −5.3, 48 hour exposure) it was 9%; in [12] (Log10 Concentration −6.3, 48 hour exposure) it was 10%; in data set [12] (Log10 Concentration −7.3, 48 hour exposure) it was 54%; in data set [12] (Log10 Concentration −8.3, 48 hour exposure), 85%; in data set [13] (T-47D, Log10 Concentration −4.3, 48 hour exposure), 14%. Further, the “Percent Growth” value was found to be 33% in data set [13] (T-47D, Log10 Concentration −5.3, 48 hour exposure); 29% in [13] (T-47D, Log10 Concentration −6.3, 48 hour exposure); 74% in data set [13] (T-47D, Log10 Concentration −7.3, 48 hour exposure); 100% in data set [13] (T-47D, Log10 Concentration −8.3, 48 hour exposure). Moreover, the CC50 was greater than 50 µM in data set [13] (Homo sapiens, T47D, 48 h, read-out: LC50) and greater than 50 µM in data set [14] (read-out: LC50). Also, the GI50 came out at 0.171 µM in data set [13] (Homo sapiens, T47D, T-47D, 48 hour exposure) and 0.135 µM in data set [14].

As usually defined, the GI50 is the concentration giving 50% growth inhibition. High values mean lower sensitivity of the cells, low ones greater sensitivity of the cells. In general, IC50 refers to the concentration that inhibits the measured activity by half.
